Earlier results, collected in US10881750B2, “Sentinel lymph node marker capable of multi-mode imaging” (NATIONAL CANCER CENTER, priority 2010, dated 2021).

Settings: 18 breast cancer patients, clinical trials (Kitai et al., Breast Cancer 2005)

In the case of `CC1(C)C(/C=C/C=C/C=C/C=C2\N(CCCCS(=O)(=O)O)c3ccc4ccccc4c3C2(C)C)=[N+](CCCCS(=O)(=O)[O-])c2ccc3ccccc3c21` [indocyanine green], the “safety in clinical use” value is given as “safe to use”.
